Measured values taken from patent publication US7528175B2, “Method of treating airway diseases with beta-adrenergic inverse agonists” (Inverseon, Inc., priority 2005, dated 2009).
Entries after “also recorded” stand apart in the source; their conditions may differ. Where two headings read alike, the source gives them in different places.

Legend:
patients with CHF = details: cited from earlier work
[1] = system: antigen-induced bronchoconstriction; details: acute administration; cited from earlier work
β-adrenergic receptor = details: U.S. Pat. No. 6,284,800; cited from earlier work
[2] = system: tracheas from asthmatic mice; details: chronic treatment of asthmatic mice, excised tracheas; cited from earlier work
asthmatic mice [3] = experiment: Airway resistance (Raw) response to methacholine in murine model of asthma (forced oscillation); assay type: in vivo, Balb/cJ mice; details: for airway hyperresponsiveness (Raw): chronic treatment 7 days, 20 mg/kg (metoprolol 3× daily s.c.; timolol in chow)
Procedure: Balb/cJ mice aged 6 weeks (Jackson Animal Laboratory, Bar Harbor, Me.) were housed under specific pathogen-free conditions and fed a chicken ovalbumin-free diet. The Animal Research Ethics Boards of both the University of Houston and the Baylor College of Medicine approved all experiments reported here. […] Mice were sensitized with subcutaneous injection of 25 μg of ovalbumin adsorbed to aluminum hydroxide on protocol days 2, 9, and 16. Subsequently, mice were given 50 μL of saline solution containing 25 μg of ovalbumin intranasally, on a daily basis, from protocol days 23 through 27. A group of ovalbumin-sensitized saline-challenged mice serves as controls for systemic sensitization and respiratory challenges with ovalbumin. Prior to intranasal administrations, mice were sedated with halothane vapor.
To examine the effects of duration of β-adrenergic ligand therapy on the phenotype of the murine model of asthma, the experimental drugs were administered either acutely or chronically to different groups of asthmatic mice.
Asthmatic mice on acute therapy were given a single intravenous bolus infusion of either β-adrenergic drug or normal saline on protocol day 28, 15 minutes before airway responsiveness to methacholine was determined. […] […] […] These concentrations were chosen based on those producing therapeutic effects in mice in previously published studies. The non-asthmatic mice were fed normal chow.
On protocol day 28, mice were anesthetized, tracheotomized, and connected to a computer-controlled small animal ventilator (Flexivent, Scientific Respiratory Equipment, Inc., Montreal, Canada). Airway resistance (Raw) was measured using the forced oscillation technique. The cellular composition of bronchoalveolar lavage fluid (BALF) was also determined.
To induce airway constriction, a solution containing 150 μg/mL of acetyl-α-methylcholine chloride (methacholine) (Sigma Chemical, St. Louis, Mo.) was infused intravenously at constant rates using a syringe infusion pump (Raze Scientific Instruments, Stanford, Conn.). […] Each methacholine dose was administered for 3 to 5 minutes, during which data were sampled at 1-minute intervals and then averaged.
The complex input impedance of the respiratory system was computed and the value of the real part of respiratory system impedance at 19.75 Hz was taken to reflect the magnitude of airway resistance (Raw). To examine the degree of airway responsiveness of each animal, the values for Raw as a function of methacholine doses were plotted. The largest value for Raw achieved in response to methacholine stimulation was referred to as Rawpeak. For mice that achieved a plateau in the methacholine dose-Raw response curve, the ED50 was calculated by linear interpolation using the GraphPad Prism4 (GraphPad Software, Inc.). […] The Bonferroni test was used to examine the statistical differences between experimental groups. The effects of acute drug treatments on baseline respiratory system mechanics were assessed using a two-tailed paired t-test. A value of P<0.05 was considered significant.
For these experiments, salbutamol was used for chronic administration at 0.5 mg/kg/day with a minipump and for acute administration at 0.15 mg/kg by i.v. bolus 15 minutes prior to challenge. Alprenolol was used at a high dose of 7200 ppm in chow or at a low dose of 720 ppm in chow. Carvedilol was used at a high dose of 2400 ppm in chow or at a low dose of 720 ppm in chow.

β2-adrenergic receptor [4] = assay type: binding, mice; details: 2 days of administration
Procedure: (§1) β2-adrenergic receptor numbers were measured in asthmatic mice as follows. […] Mice were sacrificed and lung membranes were isolated as follows. Frozen lung tissue was homogenized in an ice-cold buffer containing 0.32 M sucrose and 25 mM Tris (pH 7.4) using a polytron (Pro 200, Pro Scientific, Inc.). The homogenate was centrifuged at 1000×g for 10 min at 4° C. The resulting supernatant was centrifuged at 40,000×g for 20 min at 4° C. The pellet was suspended in an ice-cold 25 mM Tris-HCl buffer (pH 7.4) and centrifuged at 40,000×g for 20 min at 4° C. The final pellet was suspended in 200 μL of 25 mM Tris-HCl (pH 7.4); membrane protein concentration was determined by BCA protein assay kit. […] The incubation was done at 37° C. for 2 h and terminated by rapid vacuum filtration through glass fiber filters. The filters were washed three times with 250 μL of cold wash buffer (25 mM Tris-HCl, pH 7.4) and the radioactivity determined in a counter. […] Receptor densities are expressed as femtomoles of sites per milligram of protein. Bmax is determined by nonlinear regression of the saturation binding curves.

β2-adrenergic receptor [5] = target: β2-adrenergic receptor (Mus musculus, UniProt P18762); assay type: binding, mice; details: for Bmax: 15 Minutes drug treatment; for Bmax / βmax: lung membranes of asthmatic mice, mean±SEM; for βmax: 28 Days drug treatment; for level of the β2-adrenergic receptor: chronic treatment, asthmatic mice
Sequence of β2-adrenergic receptor (Mus musculus, UniProt P18762) (P18762 whole entry): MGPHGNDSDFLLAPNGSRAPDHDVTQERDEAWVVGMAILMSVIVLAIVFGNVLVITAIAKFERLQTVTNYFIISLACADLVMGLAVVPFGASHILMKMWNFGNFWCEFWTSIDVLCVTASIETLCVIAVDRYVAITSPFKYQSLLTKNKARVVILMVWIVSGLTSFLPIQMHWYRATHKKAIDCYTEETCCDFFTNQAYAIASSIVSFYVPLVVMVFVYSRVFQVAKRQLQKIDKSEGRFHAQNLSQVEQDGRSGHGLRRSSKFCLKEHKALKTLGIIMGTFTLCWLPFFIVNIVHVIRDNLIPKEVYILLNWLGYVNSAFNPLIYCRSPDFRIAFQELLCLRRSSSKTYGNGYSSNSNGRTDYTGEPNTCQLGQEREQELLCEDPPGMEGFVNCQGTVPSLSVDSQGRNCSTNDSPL
Procedure: as §1

asthmatic mice [6] = experiment: BALF cell number and type (Example 11); assay type: in vivo; details: vs nontreated asthmatic mice
Source text: The same mice as described in Example 1 underwent bronchoalveolar lavage (BAL) to determine the total number and type of immune system cells in the lung. BAL Fluid (BALF) was irrigated and collected from the lungs of mice as previously described (Evans K L, Bond R A, Corry […]. Frequency dependence of respiratory system mechanics during induced constriction in a murine model of asthma. J Appl Physiol. 2003 January;94(1):245-52). […] The number of neutrophils was increased in nontreated asthmatic mice compared to mice that served as controls for chronic beta-blocker treatments. In comparison to their notable effects on airway responsiveness, the β-AR ligands tested had very little effect on BALF cellularity. […] FIG. 12 has 3 panels of cell number and type of cells from the bronchoalveolar lavage fluid of asthmatic mice treated acutely or chronically with beta adrenergic ligands. Cells were identified as eosinophils (black bars), macrophages (hatched bars), neutrophils (grey bars), and lymphocytes (white bars) by standard morphologic criteria. At least 200 cells were counted per cytospin preparation, and the absolute number of each cell type was calculated based on the volume of fluid recovered from the lavage. […] Data are expressed as mean ±SEM and are representative of 6-25 animals per group. #P<0.05 compared to NTX, *P<0.05 compared to control (ANOVA).

[7] = cited from earlier work
asthmatic mice [8] = experiment: Total number of immune cells in BALF (Example 12); assay type: in vivo; details: chronic treatment; compared to NS/NC mice
Procedure: Bronchial alveolar lavage fluid was collected from treated animals and total immune cell number was determined and the total number of eosinophils was also determined. Additionally, the interleukin 10 (IL-10) levels were determined in the mice.

[9] = chronic use; cited from earlier work
[10] = asthmatic mice, acute: single intravenous bolus 15 minutes before methacholine
[11] = asthmatic mice, chronic administration for 28 days

SMILES: CC(C)(Cc1c[nH]c2ccccc12)NCC(O)COc1ccccc1C#N (stereo not shown) [Bucindolol, bucindolol]
- clinical outcome in congestive heart failure (patients with CHF): failed to demonstrate any benefit over placebo

SMILES: CC(C)NC[C@@H](O)COc1cccc2ccccc12 [D-propranolol]
- antigen-induced bronchoconstriction and airway hyperresponsiveness [1]: beneficial in inhibiting antigen-induced bronchoconstriction and reducing airway hyperresponsiveness
- activity with respect to β-adrenergic receptors (β-adrenergic receptor): inactive

SMILES: Cc1ccc(OCC(O)C(C)NC(C)C)c2c1CCC2 (stereo not shown) [ICI-118,551]
- effectiveness on tracheal contraction in response to methacholine (rank) [2]: then ICI-118,551

SMILES: CC(C)NC[C@H](O)COc1cccc2ccccc12 [L-form of propranolol, propranolol]
- specific lung resistance [1]: increased specific lung resistance

SMILES: C=CCc1ccccc1OCC(O)CNC(C)C (stereo not shown) [alprenolol]
- Decreased Raw (asthmatic mice [3]; 15 minutes of administration): yes
- Decreased Raw (asthmatic mice [3]; 2 days of administration): no
- Decreased Raw (asthmatic mice [3]; 28 days of administration): no
- airway responsiveness to methacholine provocation (Raw) (asthmatic mice [3]; [10]): airway responsiveness was diminished
- airway responsiveness to methacholine provocation (Raw) (asthmatic mice [3]; [11]): does not reduce airway hyperresponsiveness; also recorded: without any activity; also recorded: provides no benefit upon chronic administration
- methacholine doses at which Raw was significantly decreased vs non-treated (P<0.05) (asthmatic mice [3]; asthmatic mice, single intravenous bolus): ≥ 408 µg/kg/min
- Increased β2AR density (β2-adrenergic receptor [4]): no
- Bmax (β2-adrenergic receptor [5]): 299.5 ± 12.19 femtomoles of sites per milligram of protein
- βmax (β2-adrenergic receptor [5]): 179.2 ± 53.05 femtomoles of sites per milligram of protein
- Increased β2AR density (β2-adrenergic receptor [5]; 15 minutes of administration): yes
- Increased β2AR density (β2-adrenergic receptor [5]; 28 days of administration): no
- level of the β2-adrenergic receptor (β2-adrenergic receptor [5]): slight decrease
- effectiveness on tracheal contraction in response to methacholine (rank) [2]: The most effective compound
- BALF cellularity (asthmatic mice [6]; acute treatment (15 minutes)): significant increase in the number of macrophages
- BALF cellularity (asthmatic mice [6]; chronic treatment (28 days)): no changes in BALF cellularity were observed

SMILES: CCCC1O[C@@H]2C[C@H]3[C@@H]4CCC5=CC(=O)C=C[C@]5(C)[C@H]4[C@@H](O)C[C@]3(C)[C@]2(C(=O)CO)O1 (stereo partly shown) [budesonide]
- plasma clearance relative to average clearance of prednisolone ([7]; in vivo): about 10 fold
- systemic availability of the swallowed fraction ([7]; in vivo): 10.7±4.3%
- plasma clearance of the 2 enantiomers, children with asthma vs healthy adults ([7]; per kilogram of bodyweight, 6 children, 11 adults): about 50%

SMILES: C[C@@H]1C[C@H]2[C@@H]3C[C@H](F)C4=CC(=O)C=C[C@]4(C)[C@@]3(F)[C@@H](O)C[C@]2(C)[C@@]1(O)C(=O)SCF [fluticasone]
- first-pass hepatic metabolism of systemically absorbed drug ([7]; in vivo): almost complete

SMILES: COCCc1ccc(OCC(O)CNC(C)C)cc1 (stereo not shown) [metoprolol]
- airway hyperresponsiveness (Raw) (asthmatic mice [3]): effective in reducing airway hyperresponsiveness
- clinical outcome in congestive heart failure (patients with CHF): significant mortality reduction

SMILES: CC(C)(C)NCC(O)c1ccc(O)c(CO)c1 (stereo not shown) [salbutamol]
- bioavailability of inhaled drug ([7]; 10 patients with cystic fibrosis vs healthy adults): greater than that in healthy adults
- Decreased Raw (asthmatic mice [3]; 15 minutes of administration): yes
- Decreased Raw (asthmatic mice [3]; 2 days of administration): no
- Decreased Raw (asthmatic mice [3]; 28 days of administration): no
- airway responsiveness to methacholine provocation (Raw) (asthmatic mice [3]; [10]): reduced the level of airway responsiveness to methacholine provocation and the level of airway resistance
- airway responsiveness to methacholine provocation (Raw) (asthmatic mice [3]; [11]): no protection was observed
- Increased β2AR density (β2-adrenergic receptor [4]): no
- Bmax (β2-adrenergic receptor [5]): 256.5 ± 29.24 femtomoles of sites per milligram of protein
- βmax (β2-adrenergic receptor [5]): 97.0 ± 23.02 femtomoles of sites per milligram of protein
- Increased β2AR density (β2-adrenergic receptor [5]; 15 minutes of administration): yes
- Increased β2AR density (β2-adrenergic receptor [5]; 28 days of administration): no
- level of the β2-adrenergic receptor (β2-adrenergic receptor [5]): slight decrease
- total number of immune cells in BALF (asthmatic mice [8]): statistically significant at P<0.05 total higher numbers of immune cells
- BALF cellularity (asthmatic mice [6]; acute treatment (15 minutes)): did not alter the cellular composition of BALF
- BALF cellularity (asthmatic mice [6]; chronic treatment (28 days)): significant increase in the number of eosinophils

SMILES: OCc1cc(C(O)CNCCCCCCOCCCCc2ccccc2)ccc1O (stereo not shown) [salmeterol]
- time for majority of a dose to be eliminated in the feces ([7]; in vivo): ≤ 72 h
- trial outcome [9]: stopped due to increased death rates

SMILES: CC(C)(C)NCC(O)c1cc(O)cc(O)c1 (stereo not shown) [terbutaline]
- increase in bioavailability from oral component ([7]; from an MDI): 6.7%
- absorption through the lung ([7]; healthy smokers vs healthy nonsmokers): absorbed through the lung more rapidly in healthy smokers than in healthy nonsmokers

SMILES: CC(C)(C)NC[C@H](O)COc1nsnc1N1CCOCC1 [timolol]
- airway hyperresponsiveness (Raw) (asthmatic mice [3]): effective in reducing airway hyperresponsiveness
